Measurements: patent US11311513B2, “Methods, agents, and compositions for the treatment of acute myeloid leukemia” (UNIVERSITY OF CINCINNATI, priority 2017, dated 2022)

Columns and labels:
Assay type in all cases: cell-based
[1] = tested on: Tet1 deficient mouse BM progenitor cells transduced with MLL-AF9; assay: Viability of MLL-AF9-transduced Tet1 deficient BM progenitor cells; settings: 48 hrs; 200 nM (FIG. 13)
Description: FIG. 5. […] Gene expression levels are shown. […] ChIP-qPCR assay was carried out 48 hrs after drug treatment. Enrichment of STAT3, STAT5, or IgG at the TET1 promoter region and other regions are shown. […] BM progenitor cells of wild-type or Tet1^−/− mice were retrovirally transduced with MLL-AF9. […] Relative cell viabilities are shown. (m) Cre-Tet1f mouse BM progenitor cells were retrovirally transduced with MLL-AF9. […] Relative cell viability is shown. (n-o) THP-1 (n) and MONOMAC-6 (o) cells were infected with lentivirus of pLenti-puro vector-based Tet1 construct. […] Relative cell viability is shown. *, P<0.05; **, P<0.01, two-tailed t-test. Error bar indicates SD of triplicate experiments.
FIG. 13. […] (a-d) BM progenitor cells of wild-type or Tet1^−/− mice were retrovirally transduced with MLL-AF9. Infected cells were treated with 200 nM JAK/STAT inhibitors individually, including Pacritinib (a), KW-2449 (b), Stattic (c) or sc-355979 (d), for 48 hrs. Relative cell viabilities are shown. (e) Cre-Tet1^fl/fl mouse BM progenitor cells were retrovirally transduced with MLL-AF9. […] Cell viabilities (normalized to non-induced Cre-Tet1^fl/fl treated with DMSO control) are shown. ‘K, P<0.05; ‘K‘K, P<0.01, two-tailed t-test
siRNAs were transfected into MONOMAC-6 cells with Cell Line Nucleofector Kit V following program T-037, using the Amaxa Nucleofector Technology (Amaxa Biosystems, Berlin, Germany). Experiments were performed 48 h after transfection. Retrovirus infection of mouse BM progenitor cells were conducted as described previously with some modifications. Briefly, retrovirus vectors were co-transfected with pCL-Eco packaging vector (IMGENEX, San Diego, Calif.) into HEK293T cells using Effectene Transfection Reagent (Qiagen, Valencia, Calif.) to produce retrovirus. BM cells were harvested from a cohort of 4- to 6-week-old C57BL/6, Tet1^−/−, or Cre-Tet1^fl/fl donor mice after five days of 5-fluorouracil (5-FU) treatment, and primitive hematopoietic progenitor cells were enriched with Mouse Lineage Cell Depletion Kit (Miltenyi Biotec Inc., Auburn, Calif.). An aliquot of enriched hematopoietic progenitor cells was added to retroviral supernatant together with polybrene in cell culture plates, which were centrifuged at 2,000 g for 2 hours at 32° C. (i.e., spinoculation) and then the medium was replaced with fresh media and incubated for 20 hours at 37° C. Next day, the same procedure was repeated once. Infected cells were grown in RPMI 1640 medium containing 10 ng/mL murine recombinant IL-3, 10 ng/mL IL-6, 100 ng/mL murine recombinant SCF (R&D Systems, Minneapolis, Minn.), along with 1.0 mg/ml of G418. Experiments were performed 7 days after infection.
(§1) These experiments were conducted as described previously (Jiang, X., et al., Blockade of miR-150 Maturation by MLL-Fusion/MYC/LIN-28 Is Required for MLL-Associated Leukemia, Cancer Cell 22:524-35 (2012); Li, Z., et al., miR-196b directly targets both HOXA9/MEIS1 oncogenes and FAS tumour suppressor in MLL-rearranged leukaemia, Nat Commun 2:688 (2012)) with ApoLive-Glo Multiplex Assay Kit, or CellTiter 96 AQueous Non-Radioactive Cell Proliferation Assay Kit (Promega, Madison, Wis.).

[2] = tested on: TET1-high AML (including MONOMAC-6, THP-1, and KASUMI-1) cells; assay: MTS viability of AML cell lines versus JAK/STAT inhibitors; settings: MTS 48 hrs; maximum concentration tested 500 nM
Description: FIG. 4. […] (a) Structures of NSC-370284 and UC-514321. […] Cells were treated with drugs at indicated doses. Cell viability was detected by MTS 48 hrs post-treatment. Error bar indicates SD of triplicate experiments. […] Secondary BMT recipient mice were transplanted with primary leukemic BM cells with MLL-AF9 (f) or AML-ETO9a (g). […] Kaplan-Meier curves are shown. The P values were determined by log-rank test. […] Secondary BMT recipient mice were transplanted with primary leukemic BM cells with MLL-AF10 or FLT3-ITD/NPM1^mut. […] Kaplan-Meier curves are shown. The P values were determined by log-rank test. (j) Wright-Giemsa staining of mouse PB and BM, or H&E staining of mouse spleen and liver of MLL-AF9 AML secondary BMT recipients with or without drug treatment.
as §1

[3] = tested on: THP-1 NSC-370284-resistant clones; assay: Viability of THP-1 NSC-370284-resistant clones with chemotherapy drugs; settings: 3 resistant clones; 48 hours
Description: FIG. 6. […] (a) NSC-370284-resistant AML cells are sensitive to DNR. Three of the THP-1 NSC-370284-resistant clones (DRC-1-3) and the parental control were treated with DNR at indicated doses. Cell viability was tested 48 hours after the treatments. […] Relative cell viability at 48 hours post drug treatment is shown. Error bar indicates SD of triplicate experiments. (d) Synergistic therapy of NSC-370284 or UC-514321 in combination with standard chemotherapy. Secondary BMT recipient mice were transplanted with primary MLL-AF9 leukemic BM cells. […] 5-9 mice were included in each group. Kaplan-Meier curves are shown. The P values were determined by log-rank test. (e) Wright-Giemsa staining of mouse PB and BM, or H&E staining of mouse spleen and liver of MLL-AF9 secondary BMT recipients treated with “5+3” alone, or combinational therapy.
Long-term treatment with a drug may cause drug resistance in patients, and thus combinatory therapy is often required. To treat AML cells that have gained resistance to inhibitors, the effects of a set of first-line AML chemotherapy drugs including daunorubicin (DNR), cytarabine (AraC), all-trans retinoic acid (ATRA), azacytidine (AZA), and decitabine (DAC) on the viability of parental THP-1 cells and three NSC-370284-resistant clones were investigated (FIG. 6a and FIG. 18a-d).

SMILES: O=C(c1ccc(/C=C/c2n[nH]c3ccccc23)cc1)N1CCNCC1 [KW-2449, reference compound]
- difference in cell viability between wild-type and Tet1 deficient cells [1]: no significant differences

SMILES: C1=C/COCc2cc(ccc2OCCN2CCCC2)Nc2nccc(n2)-c2cccc(c2)COC/1 [Pacritinib, reference compound]
- difference in cell viability between wild-type and Tet1 deficient cells [1]: no significant differences

SMILES: O=C(NN=Cc1coc2ccccc2c1=O)c1cccnc1 [sc-355979, reference compound]
- inhibitory effects on the viability of these AML cells [2]: did not show significant inhibitory effects
- difference in cell viability between wild-type and Tet1 deficient cells [1]: no significant differences

SMILES: COc1cccc2c1C(=O)c1c(O)c3c(c(O)c1C2=O)C[C@@](O)(C(C)=O)C[C@@H]3O[C@H]1C[C@H](N)[C@H](O)[C@H](C)O1 [DNR, daunorubicin]
- sensitivity of drug-resistant clones relative to parental THP-1 control [3]: much more sensitive

SMILES: O=[N+]([O-])c1ccc2c(c1)S(=O)(=O)C=C2 [Stattic, reference compound]
- inhibitory effects on the viability of these AML cells [2]: did not show significant inhibitory effects
- difference in cell viability between wild-type and Tet1 deficient cells [1]: no significant differences
